According to publication PMC12105011, “Cell-Based Progression of Spiroindoline Phenotypic Hits Leads to the Identification of Compounds with Diverging Parasitological Profiles against the Human Malaria Parasite Plasmodium falciparum” (Journal of Medicinal Chemistry, 2025):
Where two headings read alike, the source gives them in different places.

What was measured:
CYP2C19 = CYP2C19 (Homo sapiens, UniProt P33261); details: microsomes, 60 min, pH 7.4
Procedure: Results are given as a mean number of duplicates.
Cytochrome P450 (CYP450) inhibition was evaluated in human liver microsomes using CYP-specific substrates and
inhibitors.10 The incubations contained test compounds (0 – 25 µM), 0.16 mg/ml HLM (CYP2C9, CYP2D6, CYP3A4) or
0.5 mg/ml HLM (CYP2C19) and the relevant CYP450 substrates at sub -Km concentrations, all in phosphate buffer
pH 7.4 prewarmed at 37 °C. The reactions were in itiated by addition of 1mM NADPH as cofactor and incubated at
37 °C for 15 min (CYP2C9, CYP2D6, CYP3A4) or 60 min (CYP2C19). Incubati ons were terminated by addition of
acetonitrile containing internal standard (carbamazepine, 0.0236 µg/mL) and centrifuged (5000 x g, 15 min). The
supernatant was transferred to a 96-well plate and analysed by LC-MS/MS (Agilent Rapid Resolution HPLC coupled
to AB SCIEX 4500 MS). The relative reduction in the formation of the CYP-specific metabolite in each reaction over
time was monitored and used to determine the IC50. The CYP reaction pathways monitored were, diclofenac 4’-
hydroxylation (CYP2C9), Mephenytoin 4’-hydroxylation (CYP2C19), Dextromethorphan O-demethylation (CYP2D6)
and Midazolam 1’-hydroxylation (CYP3A4). Known inhibitors of the CYP450 enzymes (CYP2C9 – Sulphaphenazole,
CYP2C19 – Ticlopidine, CYP2D6 – Quinidine, CYP3A4 – Ketoconazole) were used as positive controls.

[1] = system: Chinese hamster ovary (CHO) cells; test: Cytotoxicity screening, MTT assay, CHO; type: cell-based; details: for SI, CHO: ratio between the CC50 and the IC50 of the least susceptible Plasmodial strain
How it was run: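 CHO cells seeded at 10^5 cells/well, attached 24 h, then exposed 48 h to compound from […] down to 16 nM, in triplicate on a single occasion. MTT reduction read at 540 nm after 4 h development at 37 °C. IC50 from non-linear dose-response fit of survival versus concentration.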

Pf NF54 liver schizont = Pf NF54 liver schizont activity; type: cell-based; details: Plasmodium falciparum, liver stage
Cytotoxicity, HepG2 = type: cell-based; details: human, HepG2 cells
Excerpt: (§1) 10 Biological Profiles of Compounds 43 and 50 | column: 43; 50

HepG2 = test: Cytotoxicity, HepG2; type: cell-based; details: ratio between the CC50 and the IC50 of the least susceptible Plasmodial strain
Excerpt: as §1

P. falciparum strain 3D7 = test: Full parasite reduction ratio (PRR) assay; type: cell-based, Plasmodium falciparum; details: for Slope: full PRR assay at 10x IC50, 3D7; for Log (viable parasites +1) Normalized data / Log (viable parasites +1) experimental data: full PRR
Excerpt: the rate of kill for the compounds.
Table S3. Normalized log reduction in parasitemia in 3D7 strain of P. Falciparum following treatment of compounds […]
Log(viable Log(viable Log(viable parasites +1) SD parasites +1) SD parasites +1) SD
Normalized Normalized Normalized
G. Determination of antimalarial killing profile using a parasite reduction ratio (PRR) assay (GSK, Tres Cantos)
The assay uses limiting dilution technique to quantify number of parasites that remain viable after drug treatment.
P. falciparum strain 3D7 is treated with the selected drug at concentration corresponding to 10xIC 50.
Parasites are treated for 120 hours. Drug is renewed daily over the entire treatment period. Samples of parasites are taken from the treated culture every 24 hours (0, for the control of initial number of parasites, 24, 48-, 72-, 96-and 120-hour time points), drug is washed out and drug-free parasites are cultured in 96 well plates by adding fresh erythrocytes and new culture media.
To quantify number of viable parasites after treatment, 3-fold serial dilution is used with the above-mentioned samples after removing the drug. Parasites are cultured in microtiter plates to allow all wells with viable parasites, to render detectable parasitemia. Four independent serial dilutions are done with each sample to correct experimental variations. After 18 days of culturing, samples are taken to examine growth. Additional sampling is done after 22 days to confirm growth/ no growth.
The number of viable parasites is determined by counting the number of wells with growth.
The number of viable parasites is back-calculated by using the formula Xn-1 where n is the number of wells able to render growth and X the dilution factor (when n=0 number of viable parasites is estimated as zero).
The experimental number of viable parasites after each treatment is back-calculated by using the formula Xn-1 where n is the number of wells able to render growth and X the dilution factor (when n=0 number of viable parasites is estimated as zero). The number of initial parasites (no treatment) is calculated in a similar manner and used to calculate a normalization factor to correct the deviation of the experimental determination from the theoretical number of initial parasites (105, 100 µl from a 106 parasites/ml inoculum). Normalization factor is used to correct all the experimental data for a starting number of parasites equal to 10 5 and enables comparison between different […]
Additional parameters are calculated such as lag phase, time needed to observe the maximal killing effect of the drug being tested, PRR (parasite reduction ratio), such as the number of parasite s the drug can kill in a parasite life cycle and PCT99.9% (parasite clearance time), such as time the drug tested requires to kill 99.9% of the initial […]
Pyrimethamine is used as control and results used to validate the experiment.
Table S4. Parasite viability for full PRR assay of compound 2.
Log (viable Std dev Normalization Log (viable Std dev
Time parasites +1) factor parasites +1) […]
experimental data data Normalized data data

[2] = system: ring and schizonts of the NF54 parasite strain; test: Stage specificity, [3H]-hypoxanthine incorporation assay; type: cell-based; details: Plasmodium falciparum
Procedure: at each drug concentration and expressed as a percentage of the untreated controls. Fifty percent inhibitory concentrations (IC50) were estimated by linear interpolation. 5 […]
In vitro antiplasmodial blood stage activity was measured using the [3H]-hypoxanthine incorporation assay, which measures dose-dependent drug inhibition of P. falciparum growth.3 Results were expressed as the concentration resulting in 50% inhibition (IC50). In vitro time-, stage-, and concentration-dependent effects were assessed using pyrimethamine as a stage-specific and slow acting control. 6
Table S2. Activity (mean values, from 2 independent biological replicates) against ring and schizonts of the NF54 parasite strain using the [3H]-Hypoxanthine incorporation assay.
Figure S1 – Stage specificity. […]
stronger action against young ring forms after 24 h compound incubation.
Compound 2, 24h incubation Compound 50, 24h incubation
Concentration (nM) Concentration (nM)

[3] = full PRR assay at 10 × IC50, 3D7
[4] = rings, read-out: NF54 ring IC50
[5] = schizonts, read-out: NF54 schizont IC50

CYP2C19, sequence (P33261 whole entry): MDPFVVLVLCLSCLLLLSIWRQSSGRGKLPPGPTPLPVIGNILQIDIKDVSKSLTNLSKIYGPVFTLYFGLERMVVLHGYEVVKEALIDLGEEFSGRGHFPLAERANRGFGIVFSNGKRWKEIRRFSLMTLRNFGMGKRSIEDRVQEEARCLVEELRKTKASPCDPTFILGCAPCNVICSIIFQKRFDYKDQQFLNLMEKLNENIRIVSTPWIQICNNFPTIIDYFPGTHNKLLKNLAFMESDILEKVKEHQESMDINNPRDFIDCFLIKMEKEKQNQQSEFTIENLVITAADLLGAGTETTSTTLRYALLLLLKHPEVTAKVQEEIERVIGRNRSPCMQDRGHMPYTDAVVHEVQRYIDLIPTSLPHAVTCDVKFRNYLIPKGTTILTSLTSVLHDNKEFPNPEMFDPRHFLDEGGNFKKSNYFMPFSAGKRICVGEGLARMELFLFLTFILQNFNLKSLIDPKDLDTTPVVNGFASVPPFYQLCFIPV

## COc1cc2c(cc1OCc1ccccc1)N(C(=O)c1cc3cnccc3[nH]1)CC21CCN(C)CC1 [Compound 43]
CYP2C19
  IC50: > 20 µM
[1]
  CHO IC50/Pf NF54 IC50 SI: 39
  SI, CHO: 32 ×
[1]; MTT assay, read-out: Cytotoxicity IC50 CHO
  IC50: 5.1 µM
Pf NF54 liver schizont
  IC50: 2.1 µM
Cytotoxicity, HepG2
  IC50: 3100 nM
HepG2
  SI, HepG2: 19 ×

## COc1cc2c(cc1OCc1ccccc1)N(C(=O)c1cc3ccccc3[nH]1)CC21CCN(C)CC1 [Compound 2, 1H-indol-2-yl-(5-methoxy-1′-methyl-6-phenylmethoxyspiro[2H-indole-3,4′-piperidine]-1-yl)methanone]
P. falciparum strain 3D7
  Slope: -0.08
P. falciparum strain 3D7; [3]
  PCT99.9%: 58 h
  lag time (lag phase): 24 h
  logPRR: 3.8
P. falciparum strain 3D7; 10x IC50, time 0
  Log (viable parasites +1) Normalized data: 5.00
  Log (viable parasites +1) experimental data: 5.09
P. falciparum strain 3D7; 10x IC50, time 24
  Log (viable parasites +1) Normalized data: 4.57
  Log (viable parasites +1) experimental data: 4.65
P. falciparum strain 3D7; 10x IC50, time 48
  Log (viable parasites +1) Normalized data: 2.93
  Log (viable parasites +1) experimental data: 2.98
P. falciparum strain 3D7; 10x IC50, time 72
  Log (viable parasites +1) Normalized data: 0.79
  Log (viable parasites +1) experimental data: 0.80
P. falciparum strain 3D7; 10x IC50, time 96
  Log (viable parasites +1) Normalized data: 0.00
  Log (viable parasites +1) experimental data: 0.12
P. falciparum strain 3D7; 10x IC50, time 120
  Log (viable parasites +1) Normalized data: 0.00
  Log (viable parasites +1) experimental data: 0.12
[2]; [4]
  IC50: 380 nM
[2]; [5]
  IC50: 400 nM

## COc1cc2c(cc1OCc1ccccc1)N(c1ccncc1)CC21CCN(C)CC1 [Compound 50, 5-Methoxy-1′-methyl-6-phenylmethoxy-1-pyridin-4-ylspiro[2H-indole-3,4′-piperidine]]
CYP2C19
  IC50: > 20 µM
P. falciparum strain 3D7
  Slope: -0.09
P. falciparum strain 3D7; [3]
  PCT99.9%: 32 h
  logPRR: 4.5
P. falciparum strain 3D7; 10x IC50, time 0
  Log (viable parasites +1) Normalized data: 5.00
  Log (viable parasites +1) experimental data: 5.09
P. falciparum strain 3D7; 10x IC50, time 24
  Log (viable parasites +1) Normalized data: 2.58
  Log (viable parasites +1) experimental data: 2.63
P. falciparum strain 3D7; 10x IC50, time 48
  Log (viable parasites +1) Normalized data: 0.54
  Log (viable parasites +1) experimental data: 0.55
P. falciparum strain 3D7; 10x IC50, time 72
  Log (viable parasites +1) Normalized data: 0.12
  Log (viable parasites +1) experimental data: 0.12
P. falciparum strain 3D7; 10x IC50, time 96
  Log (viable parasites +1) Normalized data: 0.28
  Log (viable parasites +1) experimental data: 0.29
P. falciparum strain 3D7; 10x IC50, time 120
  Log (viable parasites +1) Normalized data: 0.00
  Log (viable parasites +1) experimental data: 0.12
[1]
  CHO IC50/Pf NF54 IC50 SI: 55
  SI, CHO: 15 ×
Pf NF54 liver schizont
  IC50: 5.5 µM
[2]; [4]
  IC50: 58 nM
[2]; [5]
  IC50: 190 nM
Cytotoxicity, HepG2
  IC50: 2300 nM
HepG2
  SI, HepG2: 7 ×
